Measured values: patent publication US20230069886A1, “AROMATIC SULPHONAMIDES DERIVATIVES THAT INHIBITS PDI A3, THEIR SYNTHESIS AND USE” (Uniwersytet Jagiellonski, priority 2020, published 2023)
≈ marks a conversion by molar mass, not a printed value. Like-named read-outs stand apart in the source and are kept apart here.

Legend:
arterial thrombosis = experiment: In vivo models of arterial thrombosis; design: species or system rat or mice; details: FIG. 5
Protocol: To confirm antithrombotic activity of compounds of invention, inhibitors of PDIA3, pharmacological activity of selected compounds was tested in vivo in the rat or mice model of arterial thrombosis. Wistar rats were anaesthetized with pentobarbital (40 mg/kg, i.p.) and placed in a supine position on a heated (37° C.) operating table. Arterial thrombosis was induced by electrical stimulation of the right common carotid artery, as previously described (Kramkowski et al., 2012). Briefly, the anode, a stainless steel L-shaped wire, was inserted under the artery and connected to a constant current generator. The cathode was attached subcutaneously to the hind limb. The artery was stimulated (1 mA) for 10 min. Fifty-five minutes after the beginning of stimulation, the segment of the common carotid artery containing the formed thrombus was dissected and opened lengthwise, and the thrombus was completely removed and air-dried at room temperature for 24 h. Thrombus was then weighed in a blinded manner. Antithrombotic effects of compounds of invention in mice was analyzed using intravital fluorescence confocal microscopy as described previously (Hayashi T et al., 2008). […] Changes in fluorescence intensity were measured as described previously (Hayashi T et al., 2008, Kramkowski et al., 2002)

human platelets = experiment: Light transmission aggregometry of collagen-stimulated human platelet-rich plasma; type: cell-based; details: human PRP, FIG. 2, 3
Protocol: Anti-platelet activity of compounds of invention was assessed using light transmission aggregometry assay of human platelet-rich plasma (PRP). Venous blood was obtained from male volunteers at the University Hospital Blood Bank Centre. Volunteer donors had not taken any medicines for the preceding two weeks. Blood was collected into vials containing sodium citrate (3.2%, 9:1 v/v) as an anti-coagulant agent. To obtain platelet rich plasma (PRP), blood was centrifuged at 260×g for 15 min. The platelet […] plasma fraction (used as a blank sample) was obtained by centrifugation of the remaining blood for 10 min at 2600×g. Aggregation of blood platelets was assessed in PRP with a dual channel Chronolog aggregometer (CHRONO-LOG) using a method previously described by Born^35. PRP (500 μl) was equilibrated for 2 min at 37° C. with a continuous stirring at 800 rpm and then stimulated with collagen to cause aggregation. At the beginning of each experiment, concentrations of collagen that induced sub-maximum aggregation response were determined. These concentrations were in the range of […], respectively. All the tested compounds were added 2 min prior to stimulation of platelets with collagen. Transmittance was read 6 min after stimulation of platelets with an agonist. […]

MDA-MB-231 = experiment: MTT antiproliferative assay, 72 h, with or without estradiol, MDA-MB-231; type: cell-based, human; details: for IC50: Homo sapiens, MDA-MB-231, 72 hours exposition, MTT
Protocol: (§1) Anticancer activity of selected compounds of invention, PDI A3-inhibitors has been also tested in vitro in antiproliferative assay in normoxic and hypoxic conditions as well in estrogen-stimulated cancer cells. In the experiment, cells were seeded on 96-well plates (Sarstedt, Germany) in appropriate culture medium at a density of 10^5 cells/mL 24 h before adding the tested compounds. Cells were treated with each compound in four concentrations in the range 0.1-100 μg/mL. […] After 72 h of compound treatment at 37° C., 5% CO2 humid atmosphere and in wo different oxygen level conditions: 21%—normal and <1%—hypoxia. In some experiments the MDA-MB-231 and MCF-7 cells were seeded with or without 200 nM estradiol and after 24 h the tested compounds were added. A previously described sulforhodamine B antiproliferative assay was used with minor modifications (Skehan P et al., 1990). Briefly, cells were fixed with 50 μL/well of 50% (w/v) trichloroacetic acid (Avantor Performance Materials, Gliwice, Poland). After 1 h incubation, plates were washed several times with tap water and 50 μL of 0.4% (w/v) solution of sulforhodamine B (Sigma-Aldrich, Germany) in 1% (v/v) acetic acid (Avantor Performance Materials, Gliwice, Poland) was added to each well. After 30 min incubation at room temperature, unbound dye was washed out with 1% (v/v) acetic acid, whereas bound dye was solubilized with 10 mM unbuffered TRIS (Avantor Performance Materials, Gliwice, Poland) solution. The entire procedure was performed using a BioTek EL-406 washing station (BioTek Instruments, USA). After additional 30 min, absorbance was read using a Biotek Hybrid H4 reader (BioTek Instruments, USA) at 540 nm wavelength. MTT assay was used alternatively for HL-60 cell line and in the experiment in which estrogens are added (specified in the table legend). Absorbance was measured using a Biotek Hybrid H4 reader at 570 nm wavelength for MTT assay.
(§2) Compounds at each concentration were tested in triplicate in a single experiment and each experiment was repeated at least three times independently. Results are presented as mean IC50±SD.

MCF-7 = experiment: MTT antiproliferative assay, 72 h, with or without estradiol, MCF-7; type: cell-based, human; details: for IC50: Homo sapiens, MCF7, 72 hours exposition, MTT
Protocol: as §1, §2

HT-29 = experiment: MTT antiproliferative assay, 72 h, HT-29; type: cell-based, human; details: Homo sapiens, HT-29, 72 hours exposition, read-out: IC50 [μg/ml] HT-29 normal
Protocol: as §1, with “A previously described sulforhodamine B antiproliferative assay was used with minor modifications (Skehan P et al., 1990).” left out, “MTT assay was used alternatively for HL-60 cell line and in the experiment in which estrogens are added (specified in the table legend).” left out
as §2

HL-60 = experiment: MTT antiproliferative assay, 72 h, HL-60; type: cell-based, human; details: Homo sapiens, HL-60, 72 hours exposition, read-out: IC50 [μg/ml] HL-60 normal
Protocol: as §1, §2

MCF-10A = experiment: Selectivity index MCF-10A versus MCF-7; type: cell-based; details: 72 hours exposition
Protocol: as §1
Compounds at each concentration were tested in triplicate in a single experiment and each experiment was repeated at least three times independently. […]

[1] = tested on: MDA-MB-231 cell transmigration across IL-1β-stimulated hLMVECs; experiment: Transendothelial migration of MDA-MB-231 cells across hLMVEC monolayer; type: cell-based, human; details: IL-1β 10 ng/mL (6 hours)-stimulated hLMVECs, 24 h co-culture, FIG. 6
Protocol: To assess whether compounds of invention, PDI A3-inhibitors are also effective as inhibitors of cancer cell transmigration through endothelium the transmigration assay with MDA-MB-231/lung microvascular endothelium was used as described previously (Stojak et al., 2018). Cell migration was assayed in 24-well, 6.5-mm internal-diameter Transwell plates (8.0 μm pore size; BD Pharmingen). Human lung microvascular endothelial cells (hLMVECs) were seeded into 24-well plates (seeding density 5×10^4 cells/insert) on the upper side of the filter and left to grow to confluence. After confluent monolayer formation, hLMVECs were pre-treated with 10 ng/mL IL-1β for 6 h. Prior to use in transmigration assay, cancer cells were pre-incubated with various concentrations (3, 10, 30, 50, 100 μM) of tested inhibitors of PDIA3, C-3390, C-3399 for 30 min. Then, MDA-MB-231 cells (each 5×10^4 per well) were placed into upper chambers and tested PDI inhibitors at various concentrations (1, 10, 30, 50, 100 μM) were given. Lower chambers were filled with medium containing chemoattractant (20% FBS or 100 ng/mL SDF-1α). After 24 h of co-culture, hLMVEC monolayers and non-migrating cancer cells on the upper surface of the membrane were removed. […] The cell number was determined by measuring the fluorescence using plate reader. […]

Compound	Anti-thrombotic effects in vivo (arterial thrombosis)	Inhibition of platelet aggregation (human platelets)	IC50 (MDA-MB-231; not pretreated with estradiol, read-out: IC50 [μg/ml] MDA-MB-231 normal) [µg/mL]	IC50 (MDA-MB-231; pretreated with 200 nM estradiol, read-out: IC50 [μg/ml] MDA-MB-231 +estradiol) [µg/mL]	Sensitivity of MDA-MB-231 line after treatment with estradiol (MDA-MB-231; estradiol (200 nM), Table 4)	IC50 (MCF-7; not pretreated with estradiol, read-out: IC50 [μg/ml] MCF-7 normal) [µg/mL]	IC50 (MCF-7; pretreated with 200 nM estradiol, read-out: IC50 [μg/ml] MCF-7 +estradiol) [µg/mL]	Lower sensitivity after treatment with estradiol in MCF-7 (MCF-7; estradiol (200 nM), Table 4)	IC50 (HT-29) [µg/mL]	IC50 (HL-60) [µg/mL]	Selectivity index (SI): IC50 of MCF-10A/IC50 of MCF-7 (MCF-10A)	Inhibition of MDA-MB-231 cell transmigration [1]
COC(=O)C1CN1S(=O)(=O)c1ccc(N(C)C)cc1 (stereo not drawn) [Compound C-3343, Methyl 1-[4-(dimethylamino)phenyl]sulfonylaziridine-2-carboxylate]	anti-thrombotic effects	–	–	–	–	–	–	–	–	–	–	–
COC(=O)C1CN1S(=O)(=O)c1ccc2c(N(C)C)cccc2c1 (stereo not drawn) [Compound C-3399, Methyl 1-[[5-(dimethylamino)-2-naphthyl]sulfonyl]aziridine-2-carboxylate]	–	lowest EC50	2.9 ± 0.3 (≈ 8.67 µM)	6.4 ± 1.9 (≈ 19.1 µM)	slightly lower sensitivity	3.7 ± 0.3 (≈ 11.1 µM)	4.3 ± 0.3 (≈ 12.9 µM)	not observed	4.3 ± 0.2 (≈ 12.9 µM)	2.4 ± 0.3 (≈ 7.18 µM)	1.6	inhibited MDA-MB-231 cell transmigration
